Values of other authors in patent US6620432B2, “Phenytoin sodium pharmaceutical compositions” (Mylan Pharmaceuticals Inc., priority 1999, dated 2003).
Where a name gives a salt, the structure may show the parent alone.

Conditions: general statement, no test described

Solubility in water	SMILES
highly water soluble	O=C1NC(=O)C(c2ccccc2)(c2ccccc2)N1 [Phenytoin sodium, monosodium salt of 5,5-diphenyl hydantoinate]
water insoluble	O=C1NC(=O)C(c2ccccc2)(c2ccccc2)N1 [phenytoin]
